We go through eleven compounds from the supplement of paper PMC8967900.

Test systems include COG-LL-355h; KOPN-8; P12-ICHIKAWA
Holding throughout (experiment): selective drug sensitivity score (sDSS, relative to normal bone marrow) (sDSS (score)); higher = more potent and effective on the cell line relative to normal bone marrow cells
What all share (details): 72 h
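Also: ALL cell lines in 384-well plates, five doses spanning 10,000-fold, each plate scaled between vehicle and 100 µmol/L benzalkonium chloride controls, sDSS an adapted area-under-curve metric.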

With `CCN(CC)CCNC(=O)c1c(C)[nH]c(/C=C2\C(=O)Nc3ccc(F)cc32)c1C` [Sunitinib] (top concentration 1000 nM), the “selective drug sensitivity score” value in the test with COG-LL-355h is 5.66; in the test with KOPN-8, -1.44; with P12-ICHIKAWA it was -1.34.
On the same counts, the results for `CC(C)Oc1ccc(-c2nn([C@@H](C)c3oc4ccc(F)cc4c(=O)c3-c3cccc(F)c3)c3ncnc(N)c23)cc1F` [TGR-1202] (top concentration 2500 nM) are 5.14, 4.54 and -2.56.
Regarding `CN(C(=O)c1ccc(F)cc1C(F)(F)F)C1CCN(c2nnc(-c3ccnn3C)c3ccccc23)CC1` [Taladegib] (top concentration 10000 nM), the “selective drug sensitivity score” value in the test on COG-LL-355h was 1.48; with KOPN-8, 6.68; in the test with P12-ICHIKAWA, -0.22.
As to `COc1cc(Nc2ncc(F)c(Nc3ccc4c(n3)NC(=O)C(C)(C)O4)n2)cc(OC)c1OC` [Tamatinib] (top concentration 10000 nM), the “selective drug sensitivity score” value with COG-LL-355h is -1.52; with KOPN-8 it was -2.12; in the test on P12-ICHIKAWA, -5.02.
For the compound `Nc1cc(F)ccc1NC(=O)c1ccc(CNC(=O)/C=C/c2cccnc2)cc1` [Tucidinostat] (top concentration 10000 nM), the entries for the “selective drug sensitivity score” value in the test with COG-LL-355h, in the test with KOPN-8 and in the test with P12-ICHIKAWA were 0.64, 12.4 and 4.04, respectively.
On to `CN[C@@H]1C[C@H]2O[C@@](C)([C@@H]1OC)n1c3ccccc3c3c4c(c5c6ccccc6n2c5c31)C(=O)N[C@H]4O` [UCN-01] (top concentration 10000 nM), for which the “selective drug sensitivity score” value in the test on COG-LL-355h amounted to 4.34; in the test on KOPN-8, 10.6; with P12-ICHIKAWA, 5.94.
On the same counts, the results for `CC(C)Nc1cc(-c2c[nH]c(C(=O)N[C@H](CO)c3cccc(Cl)c3)c2)c(Cl)cn1` [Ulixertinib] (top concentration 10000 nM) are 3.82, 5.42 and 1.22.
In the same order, the values of `Cn1ncc(Cl)c1-c1cc(C(=O)N[C@H](CN)Cc2ccc(F)c(F)c2)oc1Cl` [Uprosertib] (top concentration 10000 nM) are 6.8, 9.1 and 1.9.
On to `C=CC(=O)N1CC/C(=C\c2ccc(F)c([N+](=O)[O-])c2)C(=O)/C(=C/c2ccc(F)c([N+](=O)[O-])c2)C1` [VLX1570] (top concentration 10000 nM), for which the “selective drug sensitivity score” value was 6.08 in the test with COG-LL-355h, 3.88 in the test with KOPN-8 and -4.92 with P12-ICHIKAWA.
Turning to `C[C@@H]1COC(Nc2ccc3ncnc(Nc4ccc(OCc5nccs5)c(Cl)c4)c3c2)=N1` [Varlitinib] (top concentration 10000 nM), the “selective drug sensitivity score” value in the test with COG-LL-355h came to 0.92; with KOPN-8, 8.32; in the test with P12-ICHIKAWA, 3.02.
Consider `CNC(=O)c1cccc(-c2ccc3c(N4CCOC[C@@H]4C)nc(N4CCOC[C@@H]4C)nc3n2)c1` [Vistusertib] (top concentration 10000 nM), for which the figures for the “selective drug sensitivity score” value in the test on COG-LL-355h, with KOPN-8 and in the test with P12-ICHIKAWA were 6.12, 19.7 and 3.72, respectively.
